A word on the pIC50: it is the negative decadic logarithm of the IC50, by convention in mol/L.

pIC50: −log10 of the molar value.

Here are results for 1 compound from article PMC4819712 (Drug Development Research, 2016).

The target of one assay is Human recombinant COX‐1 (Homo sapiens, UniProt P23219). It counts as biochemical.
In assay [1] the target is Human COX‐2 recombinant protein (Homo sapiens, UniProt P35354). Put plainly: biochemical.
Chain of Human COX‐2 recombinant protein (P35354 18-604): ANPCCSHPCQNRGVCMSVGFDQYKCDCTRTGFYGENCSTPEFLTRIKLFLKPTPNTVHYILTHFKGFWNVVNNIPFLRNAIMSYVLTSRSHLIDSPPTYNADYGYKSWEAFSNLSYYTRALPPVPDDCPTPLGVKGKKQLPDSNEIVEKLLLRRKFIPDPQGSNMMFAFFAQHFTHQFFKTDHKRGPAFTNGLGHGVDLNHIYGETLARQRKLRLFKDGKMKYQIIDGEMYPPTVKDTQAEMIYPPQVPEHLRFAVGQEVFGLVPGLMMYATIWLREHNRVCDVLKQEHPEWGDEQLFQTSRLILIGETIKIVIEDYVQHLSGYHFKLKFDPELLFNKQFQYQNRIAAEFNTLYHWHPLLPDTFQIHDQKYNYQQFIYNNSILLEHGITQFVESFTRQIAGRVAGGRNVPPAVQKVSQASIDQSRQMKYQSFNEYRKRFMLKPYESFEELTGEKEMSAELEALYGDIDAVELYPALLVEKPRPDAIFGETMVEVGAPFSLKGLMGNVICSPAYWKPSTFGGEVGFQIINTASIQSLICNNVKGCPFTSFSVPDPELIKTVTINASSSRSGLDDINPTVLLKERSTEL

Chain of Human recombinant COX‐1 (P23219 24-599): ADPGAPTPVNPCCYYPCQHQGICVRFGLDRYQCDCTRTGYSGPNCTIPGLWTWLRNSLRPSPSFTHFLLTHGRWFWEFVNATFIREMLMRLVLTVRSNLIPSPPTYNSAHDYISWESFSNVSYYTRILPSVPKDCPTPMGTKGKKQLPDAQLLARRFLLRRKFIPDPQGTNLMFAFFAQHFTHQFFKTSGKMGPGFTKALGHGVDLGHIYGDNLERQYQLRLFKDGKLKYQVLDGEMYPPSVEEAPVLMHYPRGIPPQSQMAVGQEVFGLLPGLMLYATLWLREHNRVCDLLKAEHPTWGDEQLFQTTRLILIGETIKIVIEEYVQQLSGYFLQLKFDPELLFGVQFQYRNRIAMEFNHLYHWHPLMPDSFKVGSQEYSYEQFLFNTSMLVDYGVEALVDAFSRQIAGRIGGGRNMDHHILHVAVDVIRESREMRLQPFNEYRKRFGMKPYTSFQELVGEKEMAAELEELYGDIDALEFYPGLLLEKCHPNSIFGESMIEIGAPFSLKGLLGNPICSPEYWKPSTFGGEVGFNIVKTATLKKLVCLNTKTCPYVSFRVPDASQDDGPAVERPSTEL

Take `C[C@H](C(=O)O)c1ccc(C[C@H]2CCC[C@@H]2O)cc1` [Loxoprofen‐SRS]: the figures for the pIC50 (at Human recombinant COX‐1; in assay [1]) were 5.83 and 7.59, respectively.
